Data: ChEMBL document CHEMBL1140731 (J Med Chem, 2008)
≈ marks a conversion by molar mass, not a printed value. Values belong to the molecule of their own block, whether it stands above or below them. Calls of active or inactive are those of the source. The calls are words filed in the database; no cut-off is given here.

Legend:
[1] = target: Transient receptor potential cation channel subfamily V member 1 (Homo sapiens, UniProt Q8NER1); experiment: Blockade of human TRPV1 receptor assessed as inhibition of capsaicin-induced calcium flux
Sequence of Transient receptor potential cation channel subfamily V member 1 (Q8NER1 whole entry): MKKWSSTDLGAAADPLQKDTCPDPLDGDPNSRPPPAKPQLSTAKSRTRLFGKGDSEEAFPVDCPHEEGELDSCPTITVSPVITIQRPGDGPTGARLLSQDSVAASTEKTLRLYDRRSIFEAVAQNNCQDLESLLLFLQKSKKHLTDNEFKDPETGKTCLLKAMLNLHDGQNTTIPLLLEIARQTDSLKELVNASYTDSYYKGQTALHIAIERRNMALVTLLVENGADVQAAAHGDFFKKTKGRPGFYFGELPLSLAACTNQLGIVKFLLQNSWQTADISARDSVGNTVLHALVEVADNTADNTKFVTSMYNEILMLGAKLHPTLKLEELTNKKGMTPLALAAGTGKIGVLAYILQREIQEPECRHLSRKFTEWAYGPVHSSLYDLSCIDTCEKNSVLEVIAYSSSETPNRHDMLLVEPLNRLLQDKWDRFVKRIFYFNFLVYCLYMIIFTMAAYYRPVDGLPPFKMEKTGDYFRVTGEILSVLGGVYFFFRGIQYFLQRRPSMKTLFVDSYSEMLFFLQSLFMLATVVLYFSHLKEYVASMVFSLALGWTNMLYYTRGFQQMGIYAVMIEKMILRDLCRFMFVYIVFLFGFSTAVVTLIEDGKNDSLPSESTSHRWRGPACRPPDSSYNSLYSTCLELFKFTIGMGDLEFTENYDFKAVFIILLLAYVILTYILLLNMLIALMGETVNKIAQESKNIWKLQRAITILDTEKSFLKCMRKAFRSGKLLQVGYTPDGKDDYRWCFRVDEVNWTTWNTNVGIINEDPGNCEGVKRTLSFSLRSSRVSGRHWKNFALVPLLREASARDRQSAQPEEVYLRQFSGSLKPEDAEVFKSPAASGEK

[2] = Cmax in rat at 10 umol/kg, po administered in PEG400; type: ADME, organism-based; set-up: dose 10 umol/kg, route oral; details: in vivo
[3] = Volume of distribution beta in monkey at 5 umol/kg, iv administered in PEG400; type: ADME, organism-based, Macaca mulatta; details: rhesus monkey, in vivo, read-out: Vbeta
[4] = Oral bioavailability in dog at 5 umol/kg administered in oleic acid/cremophor/PEG400 (80:10:10); details: in vivo
[5] = Volume of distribution beta in rat at 10 umol/kg, iv administered in PEG400; type: ADME, organism-based; details: in vivo, read-out: Vbeta
[6] = Half life in rat at 10 umol/kg, iv administered in PEG400; type: ADME, organism-based; details: in vivo
[7] = Oral bioavailability in dog at 5 umol/kg administered in PEG400; details: in vivo
[8] = Cmax in monkey at 10 umol/kg, po administered in PEG400; type: ADME, organism-based, Macaca mulatta; set-up: dose 10 umol/kg, route oral; details: rhesus monkey, in vivo
Rattus norvegicus [9] = species: Rattus norvegicus; experiment: Decrease in carrageenan-induced thermal hyperalgesia in Sprague-Dawley rat; type: functional
[10] = Half life in monkey at 5 umol/kg, iv administered in PEG400; type: ADME, organism-based, Macaca mulatta; details: rhesus monkey, in vivo
Rattus norvegicus [11] = experiment: Decrease in carrageenan-induced thermal hyperalgesia in Sprague-Dawley rat at 100 umol/kg; type: functional, organism-based
[12] = Aqueous solubility at pH 6.8; type: physicochemical; details: buffer
[13] = Oral bioavailability in rat at 10 umol/kg administered in PEG400; type: ADME, organism-based; details: in vivo
[14] = Cmax in dog at 5 umol/kg, po administered in oleic acid/cremophor/PEG400 (80:10:10); details: in vivo
[15] = Volume of distribution beta in dog at 5 umol/kg, iv administered in PEG400; type: ADME, organism-based, Canis lupus familiaris; details: in vivo, read-out: Vbeta
[16] = Half life in dog at 5 umol/kg, iv administered in PEG400; type: ADME, organism-based, Canis lupus familiaris; details: in vivo
[17] = Permeability across human Caco-2 cells; type: ADME, cell-based
[18] = Aqueous solubility at pH 1; type: physicochemical; details: buffer
[19] = Cmax in dog at 5 umol/kg, po administered in PEG400; details: in vivo
[20] = Ratio of drug level in brain to plasma in Sprague-Dawley rat; type: ADME; details: read-out: BPR
[21] = Oral bioavailability in monkey at 10 umol/kg administered in PEG400; type: ADME, organism-based, Macaca mulatta; details: rhesus monkey, in vivo

Structure (SMILES): O=C(Nc1cccc2[nH]ncc12)NC1CCc2ccccc21 (stereo unspecified)
- IC50 [1]: 151 nM

Structure (SMILES): O=C(Nc1cccc2[nH]ncc12)NC1CCc2c1cccc2N1CCCC1 (stereo unspecified)
- IC50 [1]: 21 nM

Structure (SMILES): O=C(Nc1cccc2[nH]ncc12)NC1CCc2ncccc21 (stereo unspecified)
- IC50 [1]: 5820 nM

Structure (SMILES): O=C(Nc1cccc2[nH]ncc12)NC1CCc2c1ccc(F)c2N1CCOCC1 (stereo unspecified)
- IC50 [1]: 5 nM

Structure (SMILES): O=C(Nc1cccc2[nH]ncc12)NC1CCOc2cc(C(F)(F)F)ccc21 (stereo unspecified)
- IC50 [1]: 11 nM

Structure (SMILES): O=C(Nc1cccc2[nH]ncc12)NC1CCc2cc(Cl)ccc21 (stereo unspecified)
- IC50 [1]: 10 nM

Structure (SMILES): CC(C)(C)c1ccc2c(c1)CC[C@H]2NC(=O)Nc1cccc2[nH]ncc12 [ABT-102]
- Cmax [2]: 250 ng/mL
- Vd [3]: 1.7 L/kg
- bioavailability [4]: 60%
- Vd [5]: 2.8 L/kg
- half-life [6]: 1.7 h
- bioavailability [7]: 22%
- Cmax [8]: 310 ng/mL
- ED50 (Rattus norvegicus [9]): 20 µmol/kg
- half-life [10]: 1.9 h
- Activity (Rattus norvegicus [11]): Active
- Solubility [12]: 0.0573 µg/mL (≈ 0.164 µM)
- bioavailability [13]: 70%
- Cmax [14]: 650 ng/mL
- Vd [15]: 1.6 L/kg
- half-life [16]: 1.8 h
- Papp [17]: > 18 ×10⁻⁶ cm/s
- Solubility [18]: 0.102 µg/mL (≈ 0.293 µM)
- Cmax [19]: 390 ng/mL
- Kp [20]: 0.32
- bioavailability [21]: 25%

Structure (SMILES): CC(C)(C#N)c1cccc2c1CCC2NC(=O)Nc1cccc2[nH]ncc12 (stereo unspecified)
- IC50 [1]: 19 nM

Structure (SMILES): O=C(Nc1cccc2[nH]ncc12)NC1CCc2c1cccc2C(F)(F)F (stereo unspecified)
- IC50 [1]: 10 nM

Structure (SMILES): Cc1ccc2c(c1)C(NC(=O)Nc1cccc3[nH]ncc13)CC2 (stereo unspecified)
- IC50 [1]: 7200 nM

Structure (SMILES): O=C(Nc1cccc2[nH]ncc12)NC1CCc2cc(F)ccc21 (stereo unspecified)
- IC50 [1]: 52 nM

Structure (SMILES): O=C(Nc1cccc2[nH]ncc12)NC1CCc2cc(C3CC3)ccc21 (stereo unspecified)
- IC50 [1]: 4 nM

Structure (SMILES): O=C(Nc1cccc2[nH]ncc12)NC1CCc2c1cccc2N1CCCCC1 (stereo unspecified)
- IC50 [1]: 10 nM

Structure (SMILES): O=C(Nc1cccc2[nH]ncc12)NC1CCc2c(C3CC3)cccc21 (stereo unspecified)
- IC50 [1]: 5 nM

Structure (SMILES): Cc1cccc2c1C(NC(=O)Nc1cccc3[nH]ncc13)CC2 (stereo unspecified)
- IC50 [1]: 595 nM

Structure (SMILES): O=C(Nc1cccc2[nH]ncc12)NC1CCc2c1cccc2N1CCOCC1 (stereo unspecified)
- IC50 [1]: 65 nM

Structure (SMILES): O=C(Nc1cccc2[nH]ncc12)NC1CCc2cc(Br)ccc21 (stereo unspecified)
- IC50 [1]: 9 nM

Structure (SMILES): CC(C)(C)c1ccc2c(c1)CC[C@H]2N/C(=N/C#N)Nc1cccc2[nH]ncc12
- IC50 [1]: 34 nM

Structure (SMILES): O=C(Nc1cccc2[nH]ncc12)NC1CCc2c1cccc2N1CCC(C(F)(F)F)CC1 (stereo unspecified)
- IC50 [1]: 7 nM

Structure (SMILES): CC(C)(C)c1ccc2c(c1)CC(F)(F)C2NC(=O)Nc1cccc2[nH]ncc12 (stereo unspecified)
- IC50 [1]: 216 nM

Structure (SMILES): CC(C)(C)c1cccc2c1CCC2NC(=O)Nc1cccc2[nH]ncc12 (stereo unspecified)
- IC50 [1]: 14 nM

Structure (SMILES): CC(C)(C)c1ccc2c(c1)CC(F)C2NC(=O)Nc1cccc2[nH]ncc12 (stereo unspecified)
- IC50 [1]: 35 nM

Further molecules by falling IC50 [1], results first:

- IC50 [1]: 1350 nM
Structure (SMILES): O=C(Nc1cccc2[nH]ncc12)NC1CCc2cccnc21 (stereo unspecified)

- IC50 [1]: 127 nM
Structure (SMILES): CC(C)(CO)c1ccc2c(c1)CC[C@H]2NC(=O)Nc1cccc2[nH]ncc12

- IC50 [1]: 97 nM
Structure (SMILES): CC(C)(C)c1ccc2c(c1)CC[C@H]2NC(=S)Nc1cccc2[nH]ncc12

- IC50 [1]: 46 nM
Structure (SMILES): Cc1cccc2c1CCC2NC(=O)Nc1cccc2[nH]ncc12 (stereo unspecified)

- IC50 [1]: 40 nM
Structure (SMILES): COc1ccc2c(c1)CCC2NC(=O)Nc1cccc2[nH]ncc12 (stereo unspecified)

- IC50 [1]: 14 nM
Structure (SMILES): O=C(Nc1cccc2[nH]ncc12)NC1CCc2cc(N3CCCCC3)ccc21 (stereo unspecified)

- IC50 [1]: 11 nM
Structure (SMILES): Cc1ccc2c(c1)CCC2NC(=O)Nc1cccc2[nH]ncc12 (stereo unspecified)

- IC50 [1]: 10 nM
Structure (SMILES): CC(C)(C)c1ccc2c(c1)CC(NC(=O)Nc1cccc3[nH]ncc13)C2 (stereo unspecified)

- IC50 [1]: 7 nM
Structure (SMILES): CN1CCC(NC(=O)Nc2cccc3[nH]ncc23)c2ccc(C(F)(F)F)cc21 (stereo unspecified)

- IC50 [1]: 3 nM
Structure (SMILES): O=C(Nc1cccc2[nH]ncc12)NC1CCc2cc(C(F)(F)F)ccc21 (stereo unspecified)
